Experimental data taken from the NIST ThermoML archive (doi:10.1016/j.jct.2018.06.021).
Numbers after ± are expanded uncertainties.

Legend:
[1] = wn = mass fraction of the nth substance listed; settings: 101.3 kPa, Liquid, Vibrating tube method
[2] = 101.33 kPa, Liquid; for viscosity: Falling or rolling sphere viscometry; for mass density: Vibrating tube method

With `OCCO` [1,2-ethanediol] + O the mass density ([1]; 293.25 K, w1 = 1) was 1113.6 ± 2 kg/m3, the mass density ([1]; 293.45 K, w1 = 0.95) was 1109.3 ± 2 kg/m3 and the mass density ([1]; 303.15 K, w1 = 1) was 1106.5 ± 2 kg/m3. The mass density ([1]; 303.45 K, w1 = 0.95) was 1102.4 ± 2 kg/m3, the mass density ([1]; 313.15 K, w1 = 1) was 1099.2 ± 2 kg/m3 and the mass density ([1]; 323.25 K, w1 = 0.95) was 1088.3 ± 2 kg/m3. The mass density ([1]; 323.25 K, w1 = 1) was 1091.9 ± 2 kg/m3, the mass density ([1]; 333.25 K, w1 = 1) was 1084.6 ± 2 kg/m3 and the mass density ([1]; 333.35 K, w1 = 0.95) was 1081 ± 2 kg/m3.

`O` [water] + OCCO showed a mass density ([1]; 323.25 K, w2 = 0) of 988 ± 2 kg/m3 and a mass density ([1]; 333.35 K, w2 = 0) of 983.1 ± 2 kg/m3.

For `OCCO` [1,2-ethanediol], the viscosity ([2]; 303.15 K) was 13.66 ± 0.56 mPa·s, the mass density ([2]; 303.15 K) was 1106.3 ± 2 kg/m3 and the viscosity ([2]; 308.15 K) was 11.32 ± 0.46 mPa·s. It also gave a viscosity ([2]; 313.15 K) of 9.474 ± 0.39 mPa·s, a mass density ([2]; 313.15 K) of 1099.2 ± 2 kg/m3 and a viscosity ([2]; 318.15 K) of 8.016 ± 0.33 mPa·s. For the same molecule, the viscosity ([2]; 323.15 K) was 6.849 ± 0.28 mPa·s, the mass density ([2]; 323.15 K) was 1092.1 ± 2 kg/m3 and the viscosity ([2]; 328.15 K) was 5.903 ± 0.24 mPa·s. The mass density ([2]; 328.15 K) was 1088.4 ± 2 kg/m3, the viscosity ([2]; 333.15 K) was 5.124 ± 0.21 mPa·s and the mass density ([2]; 333.15 K) was 1084.8 ± 2 kg/m3. For the same molecule, the viscosity ([2]; 338.15 K) was 4.482 ± 0.18 mPa·s, the mass density ([2]; 338.15 K) was 1081.2 ± 2 kg/m3 and the viscosity ([2]; 343.15 K) was 3.946 ± 0.16 mPa·s. The mass density ([2]; 343.15 K) was 1077.5 ± 2 kg/m3, the viscosity ([2]; 348.15 K) was 3.496 ± 0.14 mPa·s and the mass density ([2]; 348.15 K) was 1073.7 ± 2 kg/m3. The viscosity ([2]; 353.15 K) was 3.112 ± 0.13 mPa·s and the mass density ([2]; 353.15 K) was 1070 ± 2 kg/m3.
